According to patent publication US10369123B2, “Perk activator for the treatment of neurodegenerative diseases” (DEUTSCHES ZENTRUM FÜR NEURODEGENERATIVE ERKRANKUNGEN E.V. …, priority 2014, dated 2019):

Key:
PERK = biological target: T1, PERK (Homo sapiens, UniProt Q9NZJ5); test: Western blot for pEIF2A and pNRF2, lentiviral 3R/4R-tau overexpression model; format: cell-based; design: endogenous in cells; host or cells: LUHMES neurons (differentiated, human); in A5 transduced with lentivirus for 3R-/4R-tau or mCherry, not for PERK; settings: for pNRF2 level: 4R-tau overexpressing cells, PERK activator 200 nM or PERK inhibitor 300 nM; for effect on pEIF2A and pNRF2: lentiviral 3R-tau overexpression
T1 sequence (Q9NZJ5 30-1116): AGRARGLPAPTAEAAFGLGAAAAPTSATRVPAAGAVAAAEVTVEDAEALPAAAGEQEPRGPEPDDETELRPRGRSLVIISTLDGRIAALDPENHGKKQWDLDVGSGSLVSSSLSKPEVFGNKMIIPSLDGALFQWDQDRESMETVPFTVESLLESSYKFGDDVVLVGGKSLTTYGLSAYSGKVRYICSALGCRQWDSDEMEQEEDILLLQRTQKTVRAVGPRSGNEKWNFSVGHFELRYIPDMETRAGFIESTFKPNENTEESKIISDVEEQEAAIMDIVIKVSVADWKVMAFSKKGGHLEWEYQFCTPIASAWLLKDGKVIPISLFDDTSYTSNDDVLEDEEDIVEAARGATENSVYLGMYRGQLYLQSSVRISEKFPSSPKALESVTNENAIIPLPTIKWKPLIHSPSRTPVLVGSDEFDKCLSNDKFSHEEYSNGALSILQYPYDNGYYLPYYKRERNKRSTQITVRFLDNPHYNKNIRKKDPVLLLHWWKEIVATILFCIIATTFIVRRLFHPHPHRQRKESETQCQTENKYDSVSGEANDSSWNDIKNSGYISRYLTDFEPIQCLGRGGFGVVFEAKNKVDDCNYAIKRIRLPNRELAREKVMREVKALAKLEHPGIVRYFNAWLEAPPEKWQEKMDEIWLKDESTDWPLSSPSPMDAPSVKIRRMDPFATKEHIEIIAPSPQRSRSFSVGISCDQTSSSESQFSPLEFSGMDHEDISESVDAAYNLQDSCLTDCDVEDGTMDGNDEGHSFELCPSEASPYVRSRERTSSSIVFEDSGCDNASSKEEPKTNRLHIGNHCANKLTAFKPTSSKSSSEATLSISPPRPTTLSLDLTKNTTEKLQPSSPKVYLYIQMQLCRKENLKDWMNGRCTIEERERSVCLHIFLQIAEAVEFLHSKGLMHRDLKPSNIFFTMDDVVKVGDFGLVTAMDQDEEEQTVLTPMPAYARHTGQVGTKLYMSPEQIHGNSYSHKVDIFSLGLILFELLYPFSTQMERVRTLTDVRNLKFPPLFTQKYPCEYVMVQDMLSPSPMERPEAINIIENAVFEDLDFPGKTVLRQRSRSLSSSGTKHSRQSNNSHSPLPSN

[1] = system: LUHMES neurons overexpressing 4R-tau; test: ATP assay, LUHMES neurons overexpressing 4R-tau; format: cell-based, human; settings: lentiviral 4R-tau overexpression 10 days, co-administration of PERK modulator
Protocol: Nunc™ Nunclon™ Delta 6-well (for protein and mRNA) or 48-well (for cell assays) plates (Thermo Fisher Scientific, Waltham, Mass., USA) were coated with 100 μg/ml poly-L-lysine (Sigma-Aldrich, St. Louis, Mo., USA) and 5 μg/ml fibronectin (Sigma-Aldrich). LUHMES (Lund Human Mesencephalic) cells, derived from human embryonic ventral mesencephalic cells by conditional immortalization (Tet-off v-myc over-expression) were seeded out in a concentration of 130,000 cells/cm^2 to achieve a confluence of 50%. They were then differentiated for 8 days in a medium of DMEM/F12 (Sigma-Aldrich), 1 μg/ml tetracycline, […] and 490 μg/ml dbcAMP into post-mitotic neurons with a dopaminergic phenotype (Lotharius et al. 2005). […]
Concentrated lentiviral particles were titrated by transducing LUHMES cells with different dilutions at 6 hours after initiating differentiation. The lowest dilution at which at least 90% of cells expressed the transgene (as determined by immunohistochemistry of the cells fixed on day 2 post differentiation) was chosen for subsequent experiments. […]
ATP assays were conducted using the ViaLight™ plus kit by Lonza according to the manufacturer's instructions. Luminescence was read with the FLUOstar Omega (BMG Labtech) platereader. The data was analyzed using the MARS Data Analysis Software (BMG Labtech) and Prism 6.

Compound: Cn1cc(-c2ccc3c(c2)CCN3C(=O)Cc2cccc(C(F)(F)F)c2)c2c(N)ncnc21 [GSK2606414, reference compound]
- pNRF2 level (PERK): not pNRF2
- pEIF2A level (PERK; 4R-tau overexpression, PERK inhibitor 300 nM): decreased
- effect on pEIF2A and pNRF2 (PERK): no significant effect
- 4R-specific toxicity in ATP assay [1]: provided protection in the ATP assay, but to a lesser extent

Compound: CCN(CC)CCC(=O)N1N=C(c2c(-c3ccccc3)c3cc(Br)ccc3[nH]c2=O)CC1c1ccc(Br)cc1 (centres unmarked) [CCT020312, 6-bromo-3-[5-(4-bromo-phenyl)-1-(3-diethylamino-propionyl)-4,5-dihydro-1H-pyrazol-3-yl]-4-phenyl-1H-quinolin-2-one]
- pNRF2 level (PERK): significantly increased
- pEIF2A level (PERK; lentiviral 3R or 4R-tau overexpression, PERK activator 200 nM): did not increase
- effect on pEIF2A and pNRF2 (PERK): no significant effect
- 4R-specific toxicity in ATP assay [1]: reduced significantly
